# In patent US5559092A, “Cosmetic composition” (Chesebrough-Pond's USA Co. Division of Conopco, Inc., priority 1992, dated 1996):
# Entries after “also recorded” stand apart in the source; their conditions may differ.
# How the values were obtained:
# [1] = tested on: isolated human hair follicles; experiment: in vitro hair follicle growth test (elongation of isolated human hair follicles in culture medium); type: cell-based
# Experimental: The effect of compounds on hair growth was assessed using an in vitro test which measures the elongation of isolated human hair follicles in a culture medium.
# This test includes the important step of isolating hair follicles having an undamaged hair bulb from human skin, for example, facelift skin, by microdissection.
# The critical step of separating the hair follicle with intact undamaged hair bulb from the subcutaneous fatty tissue in which it is situated accordingly involves severing the hair shaft of the follicle at a point below the epidermis of skin surface, so as to leave the hair bulb intact and undamaged while still bearing a portion of the hair shaft.
# Preferably, the hair shaft of the follicle is severed at the dermal-subcutaneous fat interface.
# Any suitable cutting instrument can be employed to sever the hair shaft in this manner, but a keratotome or a scalpel are preferred.
# The hair bulb with a hair Shaft stump attached is then isolated from the skin by mechanically separating the hair from loosely adhering subcutaneous fat which normally surrounds the hair bulb. This is achieved after the dermis or upper layer of the skin has been separated and removed, to avoid damaging the hair bulb as it is pulled away.
# The hair bulb together with hair shaft stump attached, is then transferred in an otherwise undamaged and fully functioning, viable state to a nutrient medium.
# The hair follicles isolated by the technique described herein are transferred to a suitable culture medium for subsequent testing of substances that can then influence their future development.
# The procedure now to be described represents a preferred method of culture and testing of hair growth.
# In accordance with the preferred method of culture, isolated hair follicles, […], are maintained in 1 ml of Williams E medium, either with or without a test hair growth substance, supplemented with […] (Penicillin and Streptomyein), Insulin (10 ng/ml) and Hydrocortisone (10 ng/ml). The medium was incubated at 37° C. in an atmosphere of 5% CO2 +95% air in individual wells of a 24 multiwell dish (Corning), which permits detailed measurements to be made of the length of individual hair follicles. The medium was refreshed once during the experiment after 4 days.
# Williams E medium is available from FLOW Laboratory under Catalogue No. 12-502. […]
# Daily growth rate and cumulative growth for each follicle were calculated by measuring the change in length of the follicles each day and from this the average of all the follicles was calculated.
# The response of an isolated hair follicle to a test substance, can accordingly be assessed by measuring the increase in length, if any, in the presence of a test substance against a control. […]
# [2] = storage stability in aqueous hair treatment composition (shampoo, conditioner or tonic); type: physicochemical; conditions: ambient temperature, 3 months
# Text: From these observations, it was realised that the αNH2 group of glutamine should be protected in order to stablise the molecule.
# [3] = 2 mM in Williams E medium & glucose
smiles,measurement,setting,value
"NC(=O)CC[C@H](N)C(=O)O [Glutamine, glutamine]",Amount of hair grown in one week,[1]; [3],2.02 mm
same,Average daily rate of growth of hair over one week,[1]; [3],0.277 mm/d
same,potency as hair growth promoter after storage,[1]; after 3 months storage at 20° C.,diminished significantly
same,effect on linear hair growth (in words),"[1]; isolated human follicles in vitro, compared with the control",potent promoter of linear hair growth; also recorded: significant increase in hair growth
same,stability during storage in aqueous hair treatment composition,[2],a significant amount of the glutamine had been converted to pyroglutamic acid and ammonia
